Reference: article PMC12278462, “Site-selective arylations of nature-inspired flavonoids or steroidal phenols via C—H or O—H activation” (Journal of Enzyme Inhibition and Medicinal Chemistry, 2025)
Read-outs that look alike come from different tables or passages of the source.

Assays:
cancer cell lines = conditions: cited from earlier work
C33A = assay: MTT antiproliferative assay, C33A; format: cell-based, human; conditions: Homo sapiens, C-33-A, 72 h; for IC50: read-out: calculated IC50 C33A
Experimental: (§1) We evaluated the cytotoxic activity of the newly synthesised arylated compounds 13–17 by the MTT assay[37] on a panel of human adherent cancer cell lines. The panel included breast (MCF-7 and MDA MB-231) and cervical (HeLa, SiHa and C33A) cancer cell lines differing in receptorial or HPV status. Tumour selectivity was determined on the NIH/3T3 mouse fibroblast cell line.
(§2) Briefly, the panels of breast and cervical cancerous cell lines, differing by their receptorial and HPV status were used, precisely MCF-7 (ER, PR and HER2 positive) and MDA-MB-231 (TNBC) breast carcinoma and HeLa (HPV18+), SiHa (HPV16+), C33A (HPV-) cervical carcinoma cells. Non-cancerous NIH/3T3 mouse fibroblast cell line was used for selectivity study. MCF-7, MDA-MB-231, Hela and NIH/3T3 cell lines were purchased from ECACC (European Collection of Cell Cultures, Salisbury, UK), while SiHa and C33A from ATCC (American Tissue Culture Collection, LGC Standards GmbH, Wesel, Germany). Cells were maintained in Eagle's Minimum Essential Medium (EMEM, Capricorn Scientific GmbH, Ebsdorfergrund, Germany) supplemented with 10% heat-inactivated fetal bovine serum (FBS), 1% non-essential amino acids (NEAA), and 1% antibiotic-antimycotic mixture (penicillin–streptomycin). The cells were maintained at 37 °C in a humidified atmosphere containing 5% CO2.
(§3) For measurements cells were seeded for 96-well plates at a density of 5 000/well, except for C33A, which was seeded in 10 000cells for each well. After overnight standing cells were treated with 10 and 30 µM solutions for screening and increasing concentrations (0.1-30.0 µM) of the test compounds were used for concentration-response curves. After incubation for 72 hours under cell culturing condition 5 mg/ml MTT (3-(4,5-[…])-2,5-diphenyl-2H-tetrazolium bromide) solution was added for another 4 h. The precipitated formazan crystals were solubilized in DMSO and the absorbance was measured at 545 nm with a microplate reader (BMG Labtech, Ortenberg, Germany). Wells with untreated cells were utilized as control, and inhibition % were calculated by GraphPad Prism v 9.0 software (GraphPad Software, San Diego, CA, USA). If the growth-inhibition exceeded 70% at 30 µM concentration during the screening concentration-response curves were fitted and IC50 values were calculated by GraphPad Prism v 9.0. The experiments were performed with five parallel wells for each experimental condition and repeated at least twice.

MDA-MB-231 = assay: MTT antiproliferative assay, MDA-MB-231; format: cell-based, human; conditions: Homo sapiens; for inhibition at 10 µM: MDA-MB-231, 10 µM; for inhibition at 10 µM / inhibition at 30 µM: 72 h; for inhibition at 30 µM: MDA-MB-231, 30 µM; for IC50: MDA-MB-231, 72 h, read-out: calculated IC50 MDA-MB-231
Experimental: as §1, §2, §3

[1] = system: NIH/3T3 mouse fibroblast cell line; assay: MTT assay, tumour selectivity on non-cancerous fibroblasts; format: cell-based; conditions: Mus musculus; for inhibition at 10 µM: NIH3T3, 10 µM; for inhibition at 10 µM / inhibition at 30 µM: 72 h; for inhibition at 30 µM: NIH3T3, 30 µM; for IC50: NIH3T3, 72 h, read-out: calculated IC50 NIH/3T3
Experimental: as §1, §2, §3

17β-HSD1 = molecular target: T1, 17β-HSD1 (Homo sapiens, UniProt P14061); assay: 17β-HSD1 enzymatic assay (E1 to E2, LC-MS/MS); format: biochemical; conditions: for inhibition at 100 µM / inhibition at 10 µM: read-out: 17β-HSD1 Inhibition (% ± SD)
T1 sequence (P14061 1-328): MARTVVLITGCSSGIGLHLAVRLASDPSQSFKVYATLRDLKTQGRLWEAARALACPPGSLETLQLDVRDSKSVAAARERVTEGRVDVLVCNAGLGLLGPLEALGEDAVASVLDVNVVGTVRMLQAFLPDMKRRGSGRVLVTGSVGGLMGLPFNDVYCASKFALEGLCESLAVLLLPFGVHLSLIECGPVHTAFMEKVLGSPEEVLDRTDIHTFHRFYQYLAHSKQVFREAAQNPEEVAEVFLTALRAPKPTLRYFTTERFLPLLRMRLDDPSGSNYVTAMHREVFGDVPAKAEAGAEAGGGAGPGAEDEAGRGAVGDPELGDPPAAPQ
Experimental: The bacterial homogenate of E. coli overexpressing HSD17B1 was previously prepared as described in references ^S2,S3, and stored in aliquots at -80 °C. Before conducting experiments, aliquots were quickly thawed and diluted twice with 100 mM sodium phosphate buffer (pH 6.5; #14457, #1411007, Kemika), then kept on ice. The enzymatic assay was performed as described in ^S3. Briefly, a 1 mL enzymatic reaction mixture was prepared in 2 mL microcentrifuge tubes with the following components: 10 µL of the test inhibitor dissolved in dimethyl sulfoxide (DMSO; #276855, Sigma Aldrich) or 10 µL of DMSO for control samples, 5 µL of 14 µM substrate estrone (E1; CAS 53-16-7; #E2300-000, Steraloids), 10 µL of 10 mM NADPH (#AE14, Carl Roth) prepared in 100 mM sodium phosphate buffer, and 965 µL of 100 mM sodium phosphate buffer (pH 6.5). The reaction mixture was mixed thoroughly before adding 10 µL of bacterial homogenate. Immediately after addition, the tubes were transferred to an Eppendorf thermoshaker (#5382000031, Eppendorf) and incubated at 37 °C for 10 minutes. To stop the reaction, 60 µL of 1.26 M ascorbic acid (#A92902, Sigma Aldrich) in methanol (#34966, Honeywell/Riedel-de Haen) /acetic acid (#1.00063, Merck) (99:1, v/v) was added. The samples were then immediately processed using solid-phase extraction (SPE). The assay was repeated in three independent experiments, with each experiment performed in technical duplicate.
The preparation of samples for liquid chromatography-tandem mass spectrometry (LC-MS/MS) involved SPE. Stock solutions of E1 and 17β-estradiol (E2; CAS: 50-28-2; #142406, Steraloids) were prepared gravimetrically and dissolved in methanol (#34966, Honeywell/Riedel-de Haen). A working calibrator solution containing both steroids was then prepared by mixing appropriate volumes of the stock solutions in methanol to achieve a final concentration of 1 µg/mL for each steroid. Eight-point calibration curves (excluding zero and blank) were prepared in 100 mM sodium phosphate buffer (pH 6.5). For each 1 mL reaction mixture or calibrator, 10 µL of 100 ng/mL internal standard solution containing [2,3,4-13C3]-17β-estradiol (#719552, Sigma Aldrich) was added. Samples were mixed thoroughly and incubated at room temperature for 15 minutes.
SPE was performed using Strata X 33 µm polymeric reversed-phase columns (30 mg/mL tubes; #8B-S100-TAK, Phenomenex). The procedure involved the following steps: column conditioning with 1 mL of methanol, column equilibration with 1 mL of H₂O (#1.15333, Supelco), sample loading (1 mL sample or calibrator), column washing with 1 mL of H₂O, column drying under high vacuum for 10 minutes, and finally elution with 1 mL of methanol directly into HPLC glass vials (#702713, Macherey-Nagel GmbH/Co). The eluted samples were stored at -20 °C until LC-MS/MS analysis.

MCF-7 = assay: MTT antiproliferative assay, MCF-7; format: cell-based, human; conditions: Homo sapiens; for inhibition at 10 µM: MCF7, 10 µM; for inhibition at 10 µM / inhibition at 30 µM: 72 h; for inhibition at 30 µM: MCF7, 30 µM; for IC50: MCF7, 72 h, read-out: calculated IC50 MCF-7
Experimental: as §1, §2, §3

HeLa = assay: MTT antiproliferative assay, HeLa; format: cell-based, human; conditions: Homo sapiens, HeLa, 72 h; for IC50: read-out: calculated IC50 HeLa
Experimental: as §1, §2, §3

SiHa = assay: MTT antiproliferative assay, SiHa; format: cell-based, human; conditions: Homo sapiens, SiHa, 72 h; for IC50: read-out: calculated IC50 SiHa
Experimental: as §1, §2, §3

[2] = system: human adherent cancer cell lines (HeLa, SiHa, C33A, MCF-7 and MDA-MB-231); assay: MTT assay, whole panel of cell lines; format: cell-based; conditions: Homo sapiens; MTT, 72 h; range across cell lines; read-out: IC50 range over the investigated cell lines
Experimental: as §1, §2, §3

Compound	inhibition at 10 µM (C33A)	inhibition at 30 µM (C33A)	IC50 (C33A)	inhibition at 10 µM (MDA-MB-231)	inhibition at 30 µM (MDA-MB-231)	IC50 (MDA-MB-231)	inhibition at 10 µM [1]	inhibition at 30 µM [1]	IC50 [1]	inhibition at 10 µM (MCF-7)	inhibition at 30 µM (MCF-7)	IC50 (MCF-7)	inhibition at 10 µM (HeLa)	inhibition at 30 µM (HeLa)	IC50 (HeLa)	inhibition at 10 µM (SiHa)	inhibition at 30 µM (SiHa)	IC50 (SiHa)	IC50 [2]	inhibition at 100 µM (17β-HSD1; 100 µM test concentration)	further results
C[C@@]12CC[C@@H]3c4ccc(OCc5cn(Cc6ccccc6)nn5)cc4CC[C@H]3[C@@H]1CCC2=O [compound 5]																					IC50 (cancer cell lines): 0.6 to 0.9 µM; IC50 (cytotoxic) (cancer cell lines): submicromolar
CN(C)C(=O)Oc1cc2c(c(-c3ccc(C(C)(C)C)cc3)c1)[C@H]1CC[C@@]3(C)C(=O)CC[C@H]3[C@@H]1CC2 [13c, 3-(N,N-dimethylcarbamoyloxy)-1-(4-tert-butylphenyl)-13α-estra-1,3,5(10)-triene-17-one]	41.1%	93.6%	10.1 µM	43.8%	92.9%	9.09 µM	47.3%	97.7%	8.75 µM	58.4%	102%	5.7 µM	53.8%	98.6%	7.9 µM	54.8%	101%	4.74 µM	4.74 to 10.1 µM		17β-HSD1 Inhibition (% ± SD) (17β-HSD1; 10 µM test concentration): No inhibition; 17β-HSD1 Inhibition (% ± SD) (17β-HSD1; 100 µM test concentration): No inhibition
CC(C)(C)c1ccc(-c2cc(O)cc3c2[C@H]2CC[C@@]4(C)C(=O)CC[C@H]4[C@@H]2CC3)cc1 [14c, 3-hydroxy-1-(4-tert-butylphenyl)-13α-estra-1,3,5(10)-triene-17-one]	25.4%	89.8%	14.4 µM	< 10%	91.3%	20.5 µM	16.1%	98.3%	13.7 µM	35.4%	101%	10.6 µM	21.9%	98.3%	13 µM	20.2%	99.6%	12.5 µM	10.6 to 20.5 µM	77.6 ± 6.3%	IC50 (17β-HSD1; read-out: 17β-HSD1 calculated IC50 (95% CI)): 2.7 µM
CN(C)C(=O)Oc1cc2c(c(-c3ccc(Br)cc3)c1)[C@H]1CC[C@@]3(C)C(=O)CC[C@H]3[C@@H]1CC2 [13b, 1-(4-bromophenyl)-3-(N,N-dimethylcarbamoyloxy)-13α-estra-1,3,5(10)-triene-17-one]	< 10%	57.8%		< 10%	13.9%		< 10%	46.3%		37.5%	68.7%		53.6%	59.3%		38.6%	40%				inhibition at 10 µM (17β-HSD1): 14.5 ± 8.4%; inhibition at 100 µM (17β-HSD1): 42.2 ± 18.6%
C[C@@]12CC[C@@H]3c4c(cc(O)cc4-c4ccc(Br)cc4)CC[C@H]3[C@@H]1CCC2=O [14b, 1-(4-bromophenyl)-3-hydroxy-13α-estra-1,3,5(10)-triene-17-one]	28.7%	57%		< 10%	46.8%		16.1%	41.7%		35.1%	81.5%	13.5 µM	26.5%	71.6%	17.5 µM	< 10%	59.7%			76.6 ± 5.1%	inhibition at 10 µM (17β-HSD1; 10 µM test concentration): 35.9 ± 8%
